We go through eleven compounds from ChEMBL document CHEMBL1201862, “PubChem BioAssay data set” (2004).

What all share (test): growth of human tumour cells (NCI), 48 h
Assay [1] deals with ACHN.
The test system of assay [2] is PC-3.
Assay [3] deals with NCI-H522.
Assay [4] has as its system OVCAR-3.
Assay [5] deals with UO-31.
Assay [6] deals with SNB-19.
In assay [7] the test system is HCT-116.
Assay [8] concerns UACC-257.
The test system of assay [9] is HCT-15.
Assay [10] relates to BT-549.
The test system of assay [11] is EKVX.
The subject of assay [12] is HOP-62.
Assay [13] concerns OVCAR-4.
Assay [14] relates to IGROV-1.
Assay [15] concerns NCI/ADR-RES.
Assay [16] deals with OVCAR-5.
Assay [17] concerns MOLT-4.
The subject of assay [18] is MDA-MB-231.
For assay [19], the system named is M14.
The test system of assay [20] is T47D.

SMILES strings stand for the structures.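 Following 48 hours of exposure in 96-well plates, responses at five concentrations were used to interpolate endpoints linearly. The concentration for 50% growth inhibition is given as GI50.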 Active and inactive are the calls of the source. Cut-off read from the data, not from the text of the source: active = GI50 up to about 1.1 µM and inactive = higher. *1 amine or outer side, *2 acyl side, *3 side chain or, on linkers, in order; H or OH if unused. Where a SMILES comes first, the peptide text is derived from it. [ ]: non-standard residue; d: D form. The star is where a group is joined. ξ: configuration not given here. X26 = O=C([C@H]1CCC[C@H]1N[*:1])[*:2]; ξW = NC(Cc1c[nH]c2ccccc12)C(=O)O; ξF = NC(Cc1ccccc1)C(=O)O; Boc = CC(C)(C)OC(=O)*; ξK = NCCCCC(N)C(=O)O; ξT = CC(O)C(N)C(=O)O; tBu = CC(C)(C)* Where only a bound is given, the exact number is not on record here.

For the compound `CC(=O)Oc1c(OC(C)C)cc(=O)n2ccsc12`, the GI50 in [1] is > 100 µM (inactive); in [2] it was > 100 µM (inactive); in assay [3], 42.2 µM (inactive); in assay [4] it was 78.2 µM (inactive); in assay [5] it was > 100 µM (inactive); in assay [6], > 100 µM (inactive). In addition, the GI50 was > 100 µM (inactive) in [7]; > 100 µM (inactive) in assay [8]; more than 100 µM in assay [9]; > 100 µM (inactive) in assay [10]; > 100 µM (inactive) in assay [11]; > 100 µM (inactive) in [12]. The GI50 was > 100 µM (inactive) in assay [13]; 92.7 µM (inactive) in assay [14]; > 100 µM (inactive) in assay [15]; > 100 µM (inactive) in assay [16]; 43.9 µM (inactive) in assay [17]; > 100 µM (inactive) in assay [18]. The GI50 in assay [19] was > 100 µM (inactive).
For `CC(C)(C)c1cc(CC2C(=O)c3ccccc3C2=O)cc(C(C)(C)C)c1O`, the GI50 in assay [1] was 9.51 µM (inactive); in assay [2], 2.7 µM (inactive); in [3], 2.62 µM (inactive); in assay [4] it was 2.89 µM (inactive); in assay [5], 2.95 µM (inactive); in assay [6], 2.94 µM (inactive). Moreover, the GI50 in assay [7] was 2.24 µM (inactive); in assay [8], 3.21 µM (inactive); in [9], 2.9 µM; in [10] it was 3.45 µM (inactive); in [11] it was 5.37 µM (inactive); in assay [12] it was 2.54 µM (inactive). The GI50 in assay [13] is 4.08 µM (inactive); in assay [14], 5.45 µM (inactive); in assay [15], 2.69 µM (inactive); in [16], 11.7 µM (inactive); in assay [17] it was 2.5 µM (inactive); in assay [18] it was 2.59 µM (inactive). Further, in assay [19], the GI50 was 2.69 µM (inactive).
With `CC(=O)Oc1ccn2nc(C)c(Cc3c(C)nn4ccc(OC(C)=O)cc34)c2c1`, the GI50 in [1] is 98.2 µM (inactive); in assay [2] it was > 10 µM (inactive); in [3] it was 33.2 µM (inactive); in assay [4] it was > 100 µM (inactive); in assay [20] it was > 100 µM (inactive); in assay [6], > 100 µM (inactive). The GI50 in assay [7] was > 100 µM (inactive); in assay [8] it was 47.1 µM (inactive); in assay [9], more than 100 µM; in [11], > 100 µM (inactive); in assay [12], 48 µM (inactive); in [13] it was > 100 µM (inactive). The GI50 in assay [14] is > 100 µM (inactive); in assay [15], > 100 µM (inactive); in assay [16], > 100 µM (inactive); in assay [17] it was 49.8 µM (inactive); in assay [18] it was > 100 µM (inactive); in assay [19], > 100 µM (inactive).
With `CC1OC(CC(=O)O)Cc2c(O)c3c(c(O)c21)C(=O)C=C(C1=CC(=O)c2c(O)c4c(c(O)c2C1=O)CC(CC(=O)O)OC4C)C3=O` (configuration not stated), the GI50 in assay [1] is 26.1 µM (inactive); in assay [3], 6.25 µM (inactive); in assay [4], 27 µM (inactive); in assay [5], 47.2 µM (inactive); in assay [6] it was > 100 µM (inactive); in assay [7] it was 10.9 µM (inactive). For the same compound, the GI50 in assay [8] is 13.4 µM (inactive); in assay [9], 11.6 µM; in assay [11], 13.5 µM (inactive); in assay [12] it was > 100 µM (inactive); in assay [13], 17.3 µM (inactive); in assay [14], 30.7 µM (inactive). Further, the GI50 in assay [16] is 43.8 µM (inactive); in assay [17], 2.69 µM (inactive); in assay [19], 15 µM (inactive).
On to `CC(OC(C)(C)C)C1NC(=O)C(CCCCNC(=O)OC(C)(C)C)NC(=O)C(Cc2c[nH]c3ccccc23)NC(=O)C(Cc2ccccc2)NC(=O)[C@H]2CCC[C@H]2NC(=O)C(Cc2ccccc2)NC1=O` (some centres not stated) (cyclo([X26][ξF][ξW][ξK](Boc)[ξT](tBu)[ξF])), for which the GI50 in [1] was > 100 µM (inactive); in assay [2], 6.37 µM (inactive); in assay [3], 61.7 µM (inactive); in [4] it was > 100 µM (inactive); in assay [20], 15.2 µM (inactive); in assay [5], > 100 µM (inactive). For the same compound, the GI50 in assay [6] is 30 µM (inactive); in assay [7], 7.26 µM (inactive); in assay [8] it was 5.41 µM (inactive); in [9], more than 100 µM; in [11], > 100 µM (inactive); in assay [12], > 100 µM (inactive). Besides, the GI50 in assay [13] was > 100 µM (inactive); in [14] it was 50.4 µM (inactive); in [15], > 100 µM (inactive); in assay [16], 17.9 µM (inactive); in assay [17] it was 14.2 µM (inactive); in assay [18] it was 31.8 µM (inactive). Further, the GI50 in assay [19] is 28.3 µM (inactive).
For the compound `COC(=O)c1c(O)ccc2c1c1c(n2Cc2cc(OC)cc(OC)c2)C(=O)c2ccccc2C1`, the GI50 in assay [2] is 16.9 µM (inactive); in assay [4], 43.2 µM (inactive); in assay [5], 63.4 µM (inactive); in assay [6] it was > 100 µM (inactive); in assay [7], 8.28 µM (inactive); in assay [8], 67 µM (inactive). Further, the GI50 in assay [9] is 32.1 µM; in [10], 55.5 µM (inactive); in [12], > 100 µM (inactive); in assay [13], 11.2 µM (inactive); in assay [14], 30.3 µM (inactive); in [15], 16.7 µM (inactive). The GI50 was 18.4 µM (inactive) in assay [16], 58.1 µM (inactive) in assay [17], 24 µM (inactive) in assay [18] and 37.8 µM (inactive) in assay [19].
Consider `O=S(=O)(SC1=NCCN1)c1cccc2ccccc12`, for which the GI50 in assay [1] was 27 µM (inactive); in [2], 29.8 µM (inactive); in assay [3] it was 14.4 µM (inactive); in assay [4] it was 44 µM (inactive); in assay [5] it was 35.9 µM (inactive); in assay [6], 28.7 µM (inactive). Also, the GI50 was 30.3 µM (inactive) in assay [7]; 28.5 µM (inactive) in assay [8]; 35.3 µM in [9]; 22.9 µM (inactive) in assay [10]; 30.1 µM (inactive) in assay [11]; 31.3 µM (inactive) in assay [12]. Also, the GI50 in [13] is 26.2 µM (inactive); in [14], 21.7 µM (inactive); in assay [15] it was 26.5 µM (inactive); in assay [16], 22.1 µM (inactive); in [17], 27.7 µM (inactive); in [18], 22.1 µM (inactive). The GI50 in assay [19] was 27.6 µM (inactive).
In the case of `O=c1[nH]c(=O)n(C2CC(O)C(CO)O2)cc1C#Cc1ccc(C(F)(F)F)cc1` (configuration not stated), the GI50 in assay [1], in [3], in assay [4], in assay [5], in assay [6] and in assay [7] was > 100 µM (inactive) in each case. In addition, the GI50 in [8] was > 100 µM (inactive); in [9], more than 100 µM; in [11], 63.2 µM (inactive); in assay [12] it was > 100 µM (inactive); in assay [13] it was > 100 µM (inactive); in assay [14], > 100 µM (inactive). Moreover, the GI50 in assay [16], in assay [17] and in [19] was > 100 µM (inactive) each time.
As to `O=C(/C=C(\Nc1ccccc1O)c1ccccc1)C(=O)NC12CC3CC(CC(C3)C1)C2`, the GI50 in assay [1] is > 10 µM (inactive); in [2], 5.65 µM (inactive); in [3] it was > 10 µM (inactive); in assay [4], > 10 µM (inactive); in [20] it was > 10 µM (inactive); in assay [5] it was > 10 µM (inactive). The GI50 was > 10 µM (inactive) in assay [8]; more than 10 µM in assay [9]; > 10 µM (inactive) in assay [11]; > 10 µM (inactive) in assay [12]; > 10 µM (inactive) in [13]; > 10 µM (inactive) in assay [14]. Moreover, the GI50 in assay [15] is > 10 µM (inactive); in assay [16], 8.45 µM (inactive); in [17], 5.66 µM (inactive); in assay [18], > 10 µM (inactive); in assay [19], > 10 µM (inactive).
On to `O=C1C=C(Nc2ccc(Cl)cc2C(=O)c2ccccc2)c2ccccc2C1=O`, for which the GI50 in assay [1], in [3], in [4], in [5], in [6] and in assay [7] was > 100 µM (inactive) each time. Moreover, the GI50 in assay [8] was > 100 µM (inactive); in assay [9], more than 100 µM; in assay [11], > 100 µM (inactive); in assay [12], > 100 µM (inactive); in [13], > 100 µM (inactive); in [14], > 100 µM (inactive). Also, the GI50 in [16], in [17] and in assay [19] was > 100 µM (inactive) throughout.
In the case of `O=c1c2ccccc2nc(-c2cccc(Cl)c2)n1NC1OC(CO)C(O)C(O)C1O` (configuration not stated), the GI50 in assay [1], in [3], in assay [4], in [5], in assay [6] and in [7] was > 100 µM (inactive) in each case. The GI50 in assay [8] is > 100 µM (inactive); in [9] it was more than 100 µM; in assay [11], > 100 µM (inactive); in [12] it was > 100 µM (inactive); in assay [13] it was > 100 µM (inactive); in assay [14], > 100 µM (inactive). Besides, the GI50 in assay [16], in [17] and in assay [19] was > 100 µM (inactive) each time.
